This is an account of results in ChEMBL document CHEMBL2073794, “Catecholamine transport by the organic cation transporter type 1 (OCT1)” (Br J Pharmacol, 1998).

In the data set the target is T1, Solute carrier family 22 member 1 (Rattus norvegicus, UniProt Q63089).
T1 sequence (Q63089 whole entry): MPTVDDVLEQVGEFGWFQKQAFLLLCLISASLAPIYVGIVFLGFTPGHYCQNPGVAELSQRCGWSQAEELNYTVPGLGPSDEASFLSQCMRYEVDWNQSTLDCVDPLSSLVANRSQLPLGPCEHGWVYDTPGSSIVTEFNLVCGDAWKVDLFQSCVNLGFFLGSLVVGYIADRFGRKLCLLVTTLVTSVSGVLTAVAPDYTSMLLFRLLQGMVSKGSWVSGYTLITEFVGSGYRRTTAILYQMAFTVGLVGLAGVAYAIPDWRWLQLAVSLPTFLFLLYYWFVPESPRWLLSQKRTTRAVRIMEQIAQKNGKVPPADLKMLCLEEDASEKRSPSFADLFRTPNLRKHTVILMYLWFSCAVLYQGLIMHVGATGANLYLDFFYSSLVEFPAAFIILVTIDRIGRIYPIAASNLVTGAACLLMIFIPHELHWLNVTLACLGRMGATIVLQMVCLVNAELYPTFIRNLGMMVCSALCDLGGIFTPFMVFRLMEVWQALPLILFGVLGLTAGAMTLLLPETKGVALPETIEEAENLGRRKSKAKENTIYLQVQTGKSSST
The experiment in a line: TP_TRANSPORTER: uptake in OCT1-expressing HEK293 cells. The data set is classed as functional, cell-based. Conditions: human.

Structures are written as SMILES.

Take `NCCc1ccc(O)c(O)c1` [DOPAMINE]: the Activity result was “substrate [+]”.
Regarding `CNC[C@H](O)c1ccc(O)c(O)c1` [EPINEPHRINE], the Activity entry was “substrate [+]”.
The value for `NC[C@H](O)c1ccc(O)c(O)c1` [NOREPINEPHRINE] was “substrate [+]”; that for `NCCc1c[nH]c2ccc(O)cc12` [SEROTONIN] was “substrate [+]”.
As for `CC[N+](CC)(CC)CC` [TETRYLAMMONIUM], the Activity entry is “substrate [+]”.
For `NCCc1ccc(O)cc1` [TYRAMINE], the Activity entry is “substrate [+]”.
